Measured values taken from US5086054A, “Novel arylcycloalkanepolyalkylamines” (SRI International, priority 1990, dated 1992).
Values joined by “and” are separate entries in the source; they are usually repeats but may differ in a detail not shown here. Equal entries are not always repeated. “Also recorded” adds a separate entry of the source. Structures can show the parent of a compound that is named as a salt. Where two headings read alike, the source gives them in different places.

Key:
[1] = test system: σ receptors; conditions: literature; cited from earlier work
[2] = clinical trials; cited from earlier work
[3] = test system: σ binding sites; conditions: microinjections into red nucleus and substantia nigra; cited from earlier work
[4] = target: T1, SIGMA RECEPTOR (Cavia porcellus, UniProt Q60492); assay: Sigma receptor binding assay ([3H]-d-SKF-10,047 displacement, brain membranes); set-up: species or system guinea-pig (male Hartley); conditions: for SIGMA RECEPTOR SLOPE: slope of dose response curve; for potency at σ receptors (in words): hydrochloride
T1 construct: Two milliter aliquots of the brain membrane preparation, containing 1.7 mg of protein; tissue Pel-Freeze (Rogers, Arkansas); host or cells: guinea-pig brains plus cerebella, membranes
T1 sequence (Q60492 whole entry): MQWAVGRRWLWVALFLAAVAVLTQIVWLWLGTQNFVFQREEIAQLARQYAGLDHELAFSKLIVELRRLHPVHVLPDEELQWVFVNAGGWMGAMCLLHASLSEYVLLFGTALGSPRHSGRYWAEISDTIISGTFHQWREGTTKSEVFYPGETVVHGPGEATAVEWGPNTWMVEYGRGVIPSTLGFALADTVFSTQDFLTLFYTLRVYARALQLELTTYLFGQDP
Protocol: (§1) This example illustrates testing of compounds in receptor binding assays.
(§2) Frozen brains from male Hartley guinea-pigs were obtained from Pel-Freeze (Rogers, Arkansas).
(§3) The brains plus cerebella were homogenized in 10 volumes (v/w) of 0.1M, pH 7.4, ice-cold Tris-HCl buffer with a Brinkmann polytron at setting 4 for 20 seconds. The homogenates were centrifuged at 20,000×g for 20 minutes at 4° C. The pellets were suspended in 10 volumes of ice-cold water and, after sitting on ice for 10 minutes, were centrifuged 30 minutes at 20,000×g at 4° C. The resulting pellets were resuspended in the above Tris buffer in ratio 1:100 (w/v) for σ receptor assays or in 5 mM Tris-HCl having pH 7.4, for PCP receptor assays. The final suspension was homogenized with a dounce glass-glass tissue grinder Wheaton "200", at small clearance (B), with three strokes before use. Two milliter aliquots of the brain membrane preparation, containing 1.7 mg of protein, were incubated in quadruplicate for one hour at 23° C. with competing mixture of ligand and radioligand. For σ receptors, [^3 H]-d-SKF-10,047, 2 nM was used. For PCP receptors, [^3 H] TCP [^3 H]-1-[1-(2-thienyl)cyclohexyl]piperidine), 1 nM was used. The nonspecific bindings were defined by 0.1 mM d-SKF-10,047 and 0.1 mM phencyclidine respectively for σ and PCP receptors. After incubation, free ligand was separated from bound ligand by rapid filtration through Whatman GF/C filters. The filters had been soaked before use in isoamyl alcohol-saturated water to prevent nonspecific [^3 H]-d-SKF-10,047 binding to the filter. In the PCP receptor assay, the filter was soaked in 0.5% polyethylenimine to reduce the filter binding of [^3 H]-TCP. After filtration, the trapped tissue was washed three times with 4 ml aliquots of 0.1 M ice-cold Tris buffer at pH 7.4 for σ receptors and 5 mM, ice-cold Tris buffer pH 7.4 for PCP receptors. The filters were transferred to 5 ml of liquid scintillation fluid and the retained radioactivity was measured by liquid scintillation spectrometry.

[5] = target: PCP RECEPTOR; assay: PCP receptor binding assay ([3H]-TCP displacement, brain membranes); set-up: species or system guinea-pig (male Hartley); conditions: for potency at PCP receptors (in words): hydrochloride
Protocol: as §1, §2, §3
(§4) Programs in Biomed. 17:107 (1983)].

[6] = target: T2, DOPAMINE D2 (Cavia porcellus, UniProt H0VE83); assay: Dopamine D2 receptor binding ([3H]-spiroperidol); set-up: species or system guinea-pig
T2 construct: printed as cerebral cortical tissue, [3H]spiroperidol, haloperidol blank
T2 sequence (H0VE83 entry or part of it): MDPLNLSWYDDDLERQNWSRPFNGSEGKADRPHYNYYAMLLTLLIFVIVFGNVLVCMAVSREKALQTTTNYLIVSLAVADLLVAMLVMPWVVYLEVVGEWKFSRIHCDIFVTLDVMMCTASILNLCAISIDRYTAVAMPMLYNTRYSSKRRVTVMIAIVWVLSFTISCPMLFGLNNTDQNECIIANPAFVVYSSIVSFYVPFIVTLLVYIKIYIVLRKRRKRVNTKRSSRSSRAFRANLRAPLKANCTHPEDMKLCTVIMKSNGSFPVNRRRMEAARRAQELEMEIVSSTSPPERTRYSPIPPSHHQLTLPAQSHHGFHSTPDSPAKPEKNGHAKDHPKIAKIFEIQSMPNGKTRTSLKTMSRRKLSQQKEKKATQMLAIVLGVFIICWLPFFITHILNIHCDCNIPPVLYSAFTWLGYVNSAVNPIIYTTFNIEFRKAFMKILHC
Excerpt: (§5) This example illustrates the testing of compounds of this invention in dopamine D2, 5-HT2, muscarinic acetylcholine, α1 -adrenoceptor and β-adrenoceptor receptor assays. The receptor assay methods are described in Eur. J. Pharmacol., 155:345 (1988) except that in the β-adrenoceptor assay, [^125 I]-pindolol was used instead of [^3 H] dihydroalprenolol.
(§6) In this study, guinea-pig brains were used for binding studies. Homogenization and centrifugation procedures for preparation of brain membranes for each receptor assay were the same as described in Example 4 for the σ and PCP receptors. However, brain regions, tissue contents, and buffers may differ depending on the assay. Conditions of binding assays for various receptors were as follows:
For dopamine D2 assay, 3 H-spiroperidol (0.15 nM) was incubated in a 2 ml assay (50 mM Tris-HCl, pH 7.4) for 2 hours at 23° C. with membranes from 12 mg of cerebral cortical tissue.
(§7) Filtration and washing conditions were the same as described above for the σ receptor assay. Nonspecific binding for each receptor was defined by the inclusion of 1 μM haloperidol for dopamine D2, 1 μM haloperidol for 5-HT2, 10 μM scopolamine for muscarinic acetylcholine, 10 μM prazosin for α1 -adrenoceptor, and 0.2 μM 1-propranolol for β-adrenoceptor. Retained radioactivity was measured by liquid scintillation spectrometry except for ^125 I-pindolol which was measured by the LKB gamma counter.
as §4

[7] = test system: MUSCARINIC ACETYLCHOLINE; type: binding, guinea-pig
Excerpt: as §5, §6
For muscarinic acetylcholine assay, […]) [^3 H]-quinuclidinyl benzylate ([^3 H]-QNB) was incubated in a 2 ml assay (50 mM Tris-HCl, pH 7.4) for 2 hours at 23° C. with membranes from 2 mg of whole brain minus cerebellum.
as §7, §4

[8] = target: 5-HT2 (Cavia porcellus, UniProt A0A286Y537); assay: 5-HT2 receptor binding; set-up: species or system guinea-pig; conditions: for IC50: Table 4, IC50 and nM only stated in text, read-out: 5-HT2
Sequence of 5-HT2 (A0A286Y537 1-470): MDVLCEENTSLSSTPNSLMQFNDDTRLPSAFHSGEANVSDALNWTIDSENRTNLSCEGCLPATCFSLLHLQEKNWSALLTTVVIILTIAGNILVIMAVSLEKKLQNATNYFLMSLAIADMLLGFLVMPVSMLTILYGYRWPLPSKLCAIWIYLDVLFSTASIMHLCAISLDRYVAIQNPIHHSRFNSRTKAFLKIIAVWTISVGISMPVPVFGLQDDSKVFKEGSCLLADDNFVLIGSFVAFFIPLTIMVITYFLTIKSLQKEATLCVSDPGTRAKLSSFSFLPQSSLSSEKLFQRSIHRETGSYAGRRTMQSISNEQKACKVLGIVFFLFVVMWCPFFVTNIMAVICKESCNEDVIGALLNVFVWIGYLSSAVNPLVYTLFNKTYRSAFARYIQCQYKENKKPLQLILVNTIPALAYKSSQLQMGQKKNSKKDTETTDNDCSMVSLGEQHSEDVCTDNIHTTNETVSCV
Excerpt: as §5, §6, §7, §4

[9] = target: α1 -ADRENOCEPTOR; assay: α1-adrenoceptor binding ([3H]-prazosin); set-up: species or system guinea-pig; conditions: Table 4; IC50 and nM only stated in text; read-out: α1 -ADRENOCEPTOR
Excerpt: as §5, §6
For α1 -adrenoceptor assay, [^3 H]-prazosin (0.4 nM) was incubated in a 1 ml assay (50 mM Tris-HCl, pH 7.4) for 1 hour at 23° C. with membranes from 1 mg of whole brain minus cerebellum.
as §7, §4

[10] = target: β-ADRENOCEPTOR; assay: β-adrenoceptor binding ([125I]-pindolol); set-up: species or system guinea-pig; conditions: Table 4; IC50 and nM only stated in text; read-out: β-ADRENOCEPTOR
Excerpt: as §5, §6
For β-adrenoceptor, [^125 I]-pindolol (0.05 nM) was incubated in a 1 ml assay (50 mM Tris-HCl, pH 7.4) for 1 hr at 23° C. with membranes from 1 mg of whole brain minus cerebellum.
as §7, §4

[11] = test system: dopamine D-2 receptor; conditions: literature; cited from earlier work
[12] = humans; cited from earlier work
[13] = literature; cited from earlier work
[14] = Table 4, IC50 and nM only stated in text, read-out: SIGMA
[15] = Table 1, mean ± error (n), read-out: PCP RECEPTOR IC50
[16] = Table 4, IC50 and nM only stated in text, read-out: PCP
[17] = Table 4, IC50 and nM only stated in text, read-out: MUSCARINIC ACETYLCHOLINE
[18] = read-out: potency (IC50) at muscarinic acetylcholine receptor

CCN1CCC[C@H]1CNC(=O)c1c(OC)ccc(Br)c1OC [remoxipride]
affinity / binding at σ receptors (in words) [1]: potent and selective σ receptor ligands | clinical antipsychotic effects [2]: display clinical antipsychotic effects

Cc1ccccc1NC(=N)Nc1ccccc1C [DTG, 1,3-di-o-tolylguanidine]
affinity / binding at σ receptors (in words) [1]: bind to σ receptors | contralateral circling behavior [3]: produce vigorous contralateral circling behavior

O=C(OCCN1CCCCC1)C1(c2ccccc2)CCCCC1 [Compound 3, 2-(1-Piperidino)ethyl 1-phenylcyclohexane-1-carboxylate hydrochloride]
IC50 ([4]; Table 1, mean ± error (n), read-out: SIGMA RECEPTOR IC50): 24 nM | SIGMA RECEPTOR SLOPE ([4]; Table 1): 0.45 ± 0.04 | IC50 [4, 14]: 26 ± 7 nM | potency at σ receptors (in words) [4]: increased the potency of the compound in the σ receptor assay; also recorded: very potent in the σ assay; also recorded: very high | IC50 ([4]; read-out: IC50 at σ receptors): < 100 nM | increased potency for σ receptors ([4]; relative to PCP (1)): more than 300 times | IC50 [5, 15]: 34900 nM | IC50 [5, 16]: 34900 nM | potency at PCP receptors (in words) [5]: reduced the potency in the PCP receptor assay; also recorded: inactive in the PCP assay; also recorded: very weak or inactive in the PCP assay; also recorded: negligible; also recorded: low potency at PCP receptors | decreased potency for PCP receptors ([5]; relative to PCP (1)): about 700 times | potency at dopamine D-2 receptors (in words) [6]: moderate potencies at dopamine D-2 and 5-HT2 receptors | potency at muscarinic acetylcholine receptors (in words) [7]: quite potent at muscarinic acetylcholine receptors | IC50 [7, 17]: 46 ± 7 nM | IC50 [7, 18]: 46 nM | potency at 5-HT2 receptors (in words) [8]: moderate potencies at dopamine D-2 and 5-HT2 receptors | IC50 [8]: 3660 nM | IC50 [9]: 24100 nM | IC50 [10]: 80400 nM

O=C(CCCN1CCC(O)(c2ccc(Cl)cc2)CC1)c1ccc(F)cc1 [haloperidol, 4-[4-(p-chlorophenyl)-4-hydroxypiperidino]-4'-fluorobutyrophenone]
affinity / binding at σ receptors (in words) [1]: high affinity for the σ site; also recorded: bind to σ receptors | dopamine D-2 receptor antagonism (in words) [11]: potent dopamine D-2 receptor antagonist

c1ccc(C2(N3CCCCC3)CCCCC2)cc1 [Compound 1, 1-(1-phenylcylohexyl)piperidine, reference compound]
SIGMA RECEPTOR SLOPE ([4]; Table 1): 0.95 ± 0.12 | IC50 [5, 15]: 45 ± 5 nM | psychotic reactions [12]: causes psychotic reactions such as hallucinations, thought disorders and paranoid delusions similar to an acute schizophrenic episode | motor and behavioral effects [13]: alter gross motor activity and spatial alternation performance and to induce stereotypic movements

CN(C)CCOC(=O)C1(c2ccccc2)CCCCC1.Cl [Compound 19, 2-(Dimethylamino)ethyl 1-phenylcyclohexane-1-carboxylate hydrochloride]
SIGMA RECEPTOR SLOPE ([4]; Table 1): 0.54 ± 0.02 | IC50 [4, 14]: 9.2 ± 0.8 nM | potency at σ receptors (in words) [4]: σ receptor potency increased; also recorded: very potent in the σ assay; also recorded: very high | IC50 ([4]; read-out: IC50 at σ receptors): < 100 nM | IC50 [5, 15]: 21700 nM | IC50 [5, 16]: 21700 nM | potency at PCP receptors (in words) [5]: inactive in the PCP assay; also recorded: very weak or inactive in the PCP assay; also recorded: negligible; also recorded: low potency at PCP receptors | potency at dopamine D-2 receptors (in words) [6]: moderate potencies at dopamine D-2 and 5-HT2 receptors | potency at muscarinic acetylcholine receptors (in words) [7]: quite potent at muscarinic acetylcholine receptors | IC50 [7, 17]: 750 ± 36 nM | IC50 [7, 18]: 750 nM | potency at 5-HT2 receptors (in words) [8]: moderate potencies at dopamine D-2 and 5-HT2 receptors | IC50 [8]: 1410 nM | IC50 [9]: 29000 nM | IC50 [10]: 85700 nM

O=C(OCCN1CCCC1)C1(c2ccccc2)CCCCC1 [Compound 8, 2-(1-Pyrrolidino)ethyl 1-phenylcyclohexane-1-carboxylate hydrochloride]
SIGMA RECEPTOR SLOPE ([4]; Table 1): 0.50 ± 0.02 | IC50 [4, 14]: 5.1 ± 1.7 nM | potency at σ receptors (in words) [4]: σ receptor potency increased; also recorded: very high | IC50 ([4]; read-out: IC50 at σ receptors): 5 nM and < 100 nM | IC50 [5, 15]: 64700 nM | IC50 [5, 16]: 64700 nM | potency at PCP receptors (in words) [5]: inactive in the PCP assay; also recorded: negligible; also recorded: low potency at PCP receptors | IC50 ([5]; read-out: IC50 / potency for PCP receptors): ~64000 nM | potency at dopamine D-2 receptors (in words) [6]: moderate potencies at dopamine D-2 and 5-HT2 receptors | potency at muscarinic acetylcholine receptors (in words) [7]: quite potent at muscarinic acetylcholine receptors | IC50 [7, 17]: 123 ± 16 nM | IC50 [7, 18]: 23 nM | potency at 5-HT2 receptors (in words) [8]: moderate potencies at dopamine D-2 and 5-HT2 receptors | IC50 [8]: 2930 nM | IC50 [9]: 23200 nM | IC50 [10]: 85000 nM

CCN(CC)CCOC(=O)C1(c2ccccc2)CCCCC1.Cl [Compound 15, 2-(Diethylamino)ethyl 1-phenylcyclohexane-1-carboxylate hydrochloride]
SIGMA RECEPTOR SLOPE ([4]; Table 1): 0.66 ± 0.16 | IC50 [4, 14]: 30 ± 5 nM | potency at σ receptors (in words) [4]: σ receptor potency increased; also recorded: very potent in the σ assay; also recorded: very high | IC50 ([4]; read-out: IC50 at σ receptors): < 100 nM | IC50 [5, 15]: 40900 nM | IC50 [5, 16]: 40900 nM | potency at PCP receptors (in words) [5]: inactive in the PCP assay; also recorded: very weak or inactive in the PCP assay; also recorded: negligible; also recorded: low potency at PCP receptors | potency at dopamine D-2 receptors (in words) [6]: moderate potencies at dopamine D-2 and 5-HT2 receptors | potency at muscarinic acetylcholine receptors (in words) [7]: quite potent at muscarinic acetylcholine receptors | IC50 [7, 17]: 189 ± 35 nM | IC50 [7, 18]: 189 nM | potency at 5-HT2 receptors (in words) [8]: moderate potencies at dopamine D-2 and 5-HT2 receptors | IC50 [8]: 2180 nM | IC50 [9]: 30100 nM | IC50 [10]: 81900 nM
